# Measurements published in BindingDB's records for doi:10.3109/14756366.2013.827675 (Orchid Chemicals & Pharmaceuticals Limited, 2014).
# Biological target: Histone deacetylase 1/11/4/6/8
# Assay: HDAC Activity screening
# Procedure: Histone Deacetylase (HDAC) Inhibition Assay using Boc-Lys(Ac)-AMC Substrate: Inhibition of HDAC has been implicated to modulate transcription and to induce apoptosis or differentiation in cancer cells. The fluorometric assay provides a fast and fluorescence based method that eliminates radioactivity, extractions or chromatography, as used in traditional assays. The assay is based on two steps. First, the HDAC fluorometric substrate, which comprises an acetylated lysine side chain, is incubated with a sample containing HDAC activity (Mouse Liver Extract). Deacetylation of the substrate sensitizes the substrate; in the second step, treatment with the Trypsin, stop solution produces a fluorophore that can be easily analyzed using fluorescence plate reader. Assay was done in 96-well black microplate and total volume of the assay was […]. Mouse liver enzyme (10 mg/mL) was diluted 1:6 with HDAC buffer. Enzyme cocktail was made of 10 mL of diluted enzyme and 30 mL of HDAC buffer. Forty m
row,IC50 [nM],SMILES
1,32,O=C(CCCCn1cc(C(=O)Nc2ccccc2)c(=O)c2ccccc21)NO [Quinolone-based HDAC inhibitor 4a]
2,270,O=C(CCCCn1cc(C(=O)Nc2ccc(F)cc2)c(=O)c2ccccc21)NO [Quinolone-based HDAC inhibitor 4b]
3,39,COc1ccc(NC(=O)c2cn(CCCCC(=O)NO)c3ccccc3c2=O)cc1 [Quinolone-based HDAC inhibitor 4c]
4,90,O=C(CCCCn1cc(C(=O)Nc2ccncc2)c(=O)c2ccccc21)NO [Quinolone-based HDAC inhibitor 4g]
5,42,O=C(CCCCn1cc(C(=O)Nc2nccs2)c(=O)c2ccccc21)NO [Quinolone-based HDAC inhibitor 4h]
6,0.1,Cc1csc(NC(=O)c2cn(CCCCC(=O)NO)c3ccccc3c2=O)n1 [Quinolone-based HDAC inhibitor 4i]
7,1.5,O=C(CCCCn1cc(C(=O)Nc2nc3ccccc3s2)c(=O)c2ccccc21)NO [Quinolone-based HDAC inhibitor 4j]
8,32,COc1ccc2c(c1)c(=O)c(C(=O)Nc1ccccc1)cn2CCCCC(=O)NO [Quinolone-based HDAC inhibitor 4k]
9,32,COc1ccc2c(c1)c(=O)c(C(=O)Nc1ccc(F)cc1)cn2CCCCC(=O)NO [Quinolone-based HDAC inhibitor 4l]
10,75,COc1ccc(NC(=O)c2cn(CCCCC(=O)NO)c3ccc(OC)cc3c2=O)cc1 [Quinolone-based HDAC inhibitor 4m]
11,150,COc1ccc2c(c1)c(=O)c(C(=O)Nc1ccc(OC)c(OC)c1)cn2CCCCC(=O)NO [Quinolone-based HDAC inhibitor 4n]
12,10,COc1ccc2c(c1)c(=O)c(C(=O)Nc1cc(-c3ccccc3)nn1C)cn2CCCCC(=O)NO [Quinolone-based HDAC inhibitor 4o]
13,28,COc1ccc2c(c1)c(=O)c(C(=O)Nc1nc3ccccc3s1)cn2CCCCC(=O)NO [Quinolone-based HDAC inhibitor 4p]
14,40,O=C(CCCCn1cc(C(=O)Nc2ccc(F)cc2)c(=O)c2cc(F)ccc21)NO [Quinolone-based HDAC inhibitor 4q]
15,28,COc1ccc(NC(=O)c2cn(CCCCC(=O)NO)c3ccc(F)cc3c2=O)cc1 [Quinolone-based HDAC inhibitor 4r]
16,230,COc1ccc(NC(=O)c2cn(CCCCC(=O)NO)c3ccc(F)cc3c2=O)cc1OC [Quinolone-based HDAC inhibitor 4t]
17,85,O=C(CCCCn1cc(C(=O)Nc2ccncc2)c(=O)c2cc(F)ccc21)NO [Quinolone-based HDAC inhibitor 4u]
18,39,O=C(CCCCn1cc(C(=O)Nc2nc3ccccc3s2)c(=O)c2cc(F)ccc21)NO [Quinolone-based HDAC inhibitor 4v]
19,95,O=C(CCCCn1cc(C(=O)NC2=CC(c3ccccc3)N=N2)c(=O)c2ccccc21)NO (stereo not drawn) [Quinolone-based HDAC inhibitor 4w]

row,SMILES,IC50 [nM]
1,O=C(CCCCn1cc(C(=O)NCc2ccccc2)c(=O)c2ccccc21)NO [Quinolone-based HDAC inhibitor 4d],120
2,COc1ccc(CNC(=O)c2cn(CCCCC(=O)NO)c3ccccc3c2=O)cc1 [Quinolone-based HDAC inhibitor 4e],410
3,O=C(CCCCn1cc(C(=O)NCc2cccs2)c(=O)c2ccccc21)NO [Quinolone-based HDAC inhibitor 4f],390
4,COc1ccc(CNC(=O)c2cn(CCCCC(=O)NO)c3ccc(F)cc3c2=O)cc1 [Quinolone-based HDAC inhibitor 4s],330
